In one series the test system is male Wistar rats. The series is described as follows: Hepatic levels of triacylglycerol in rats fed fatty acid analogues (Example 17). Conditions: no prefeeding. The format is in vivo, rat. An excerpt:
Even an increased hepatic level of triacylglycerol may be relieved by TTA. Feeding rats with an inhibitor of fatty acid oxidation will increase the level of hepatic triacylglycerol resulting in fatty liver. Tetradecyl-4-thia propionic acid (TTP) is a fatty acid analogue with a sulphur atom in the 4 position. This analogue inhibits the β-oxidation of fatty acids due to the formation of a mitochondrial inhibitor. Feeding rats with this analogue results in the formation of fatty. However, if the rats are fed with a combination of TTA and TTP, the formation of fatty liver is avoided (Table 8). This provides evidence that TTA may be used for the treatment of conditions with an increased hepatic level of triacylglycerol. Male Wistar rats had free access to water and rat maintenance chow. They were fed palmitic acid or fatty acid analogues suspended in 0.5% CMC for 6 days. In some experiments TTA or TTP were fed for 3 days before feeding both for 6 days. At the end of the experiment the rats were fasted overnight, killed, the liver removed and homogenized. Triacylglycerol was measured in the homogenate.

The next series concerns Wistar rats. The series is described as follows: Lipid lowering effect in normal Wistar rats (Example 4). Format: in vivo, rat. Conditions: gavage once daily for 7 days.
For series [1], the system named is rat liver mitochondrial β-oxidation. The series is described as follows: Mitochondrial β-oxidation in rat liver, fatty acid analogues with S in different positions (Example 18). Format: in vivo. Conditions: [1-14C]-palmitoyl-L-carnitine as substrate. How it is done:
Freshly isolated livers from individual old Zucker rats, were homogenised in ice-cold sucrose buffer (0.25 M sucrose, 10 mM HEPES (pH 7.4) and 2 mM EDTA). Post-nuclear and mitochondrial fractions were prepared using preparative differential centrifugation according to DeDuve et al. (De Duve, C., et al., Biochem. J., 60, 604-617 1955.) Modifications, purity and yield were as described earlier (Garras, A., et al., Biochim. Biophys. Acta, 1255, 154-160 1995.). Acid soluble products were measured in post-nuclear and mitochondrial enriched fractions, using [1-^14C]-palmitoyl-CoA and [1-^14C]-palmitoyl-L-carnitine (Radiochemical Centre, Amersham, England) as substrates as described earlier (Willumsen, N., et al., J. Lipid Res., 34, 13-22 1993. Carnitine palmitoyltransferase-I and -II activities were measured in the post-nuclear and mitochondrial fractions essentially as described by Bremer (Bremer, J., Biochim. Biophys. Acta, 665, 628-631 1981.) and 3-hydroxy-3-methylglutharyl-CoA synthase was measured according to Clinkenbeard et al. (Clinkenbeard, K. D., et al., J. Biol. Chem, 250, 3108-3116 1975.) in the mitochondrial fractions.
The mitochondrial β-oxidation is measured as in example 16 with the use of [1-^14C]-palmitoyl-L-carnitine as substrates.

For a further series, the system named is Escherichia coli. The series is described as follows: Test for mutagenic activity in Escherichia coli strains. The format is cell-based. Conditions: 3-1000 mg/plate (TTA) 2-5000 mg/plate (TSA). The source says: (§1) Tests for mutagenic activity have been performed by Covance Laboratories Limited, England. […] Furthermore, TTA was not mutagenic when tested in mouse lymphoma cells […] L5178Y.

The subject of a further series is Salmonella typhimurium. The series can be described thus: Test for mutagenic activity in Salmonella typhimurium strains. Conditions: 3-1000 mg/plate (TTA) 2-5000 mg/plate (TSA). Format: cell-based.
Description: as §1

The subject of series [2] is chinese hamster ovary cells. The series is described as follows: Chromosomal aberrations in cultured chinese hamster ovary cells. Format: cell-based. Conditions: doses tested 12-140 mg/ml.
Where [3] appears, read: dose 1500 mg/day/kg body weight.

Take `CCCCCCCCCCCCCCSCCC(=O)O`: the “Hepatic triacylglycerol TG (μmol/g)” value with male Wistar rats (TTP 300 mg/kg/day for 6 days) is 95,4 ± 14,7 μmol/g.
As for `CC/C=C\C/C=C\C/C=C\C/C=C\C/C=C\CCCC(=O)O` [EPA, eicosapentaenoic acid, reference compound], in the series on Wistar rats (setting [3]), the “Plasma lipids (% reduction of control) cholesterol” value is reported as 18 % reduction of control and the “Plasma lipids (% reduction of control) triglycerides” value is 20 % reduction of control.
On to `CCCCCCCCCCCCCCCC(=O)O` [Palm, palmitic acid], for which the “Hepatic triacylglycerol TG (μmol/g)” value with male Wistar rats (palmitic acid for 6 days) is 10,9 μmol/g. The “Mitochondrial β-oxidation activity (nmol/min/mg protein)” value in series [1] is recorded as 0,47 ± 0,06 nmol/min/mg protein.
Turning to Tetradecylselenoacetic acid [TSA], in the series on Escherichia coli, the “Induction of mutations in strains of Escherichia coli” value was “did not induce mutations”. In the series on Wistar rats (dose 15 mg/day/kg body weight), the “Plasma lipids (% reduction of control) cholesterol” value is on record as 20 % reduction of control and the “Plasma lipids (% reduction of control) triglycerides” value is 25 % reduction of control. For the same compound, the “Induction of mutations in strains of Salmonella typhimurium” value in the series with Salmonella typhimurium is recorded as “did not induce mutations”. Besides, the “Chromosomal aberrations in cultured chinese hamster ovary cells” value in series [2] is listed as “no aberrations were induced”.

Values taken from patent publication US6365628B1 (Thia Medica AS, priority 1998, dated 2002).
